Assay results reported in US20230277533A1, “THERAPEUTIC COMBINATIONS COMPRISING UBIQUITIN-SPECIFIC-PROCESSING PROTEASE 1 (USP1) INHIBITORS AND POLY (ADP-RIBOSE) POLYMERASE (PARP) INHIBITORS” (KSQ Therapeutics, Inc., priority 2020, published 2023).

Assays:
Assay in all cases: Colony formation (CFU) assay
Type in all cases: cell-based
NCIH1915 = conditions: NCI-H1915; NCIH1915, lung
Method in brief: (§1)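 Absorbance at 565 nm of crystal violet extracted with 10% acetic acid measures colony mass. Cells grow ~14 days in six-well plates, exposed from day 8 to USP1 inhibitor, niraparib, olaparib or DMSO.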

U251MG = conditions: Homo sapiens, U-251, nervous system
Method in brief: as §1

OV56 = conditions: OV56, ovary
Method in brief: as §1

HUO3N1 = conditions: HUO3N1, bone
Method in brief: as §1

SCC15 = conditions: Homo sapiens, SCC-15; SCC15, head and neck
Method in brief: as §1

HSC3 = conditions: Homo sapiens, HSC-3; HSC3, head and neck
Method in brief: as §1

UBLC1 = conditions: UBLC1, bladder
Method in brief: as §1

SNU489 = conditions: SNU489, nervous system
Method in brief: as §1

NCIH838 = conditions: Homo sapiens, NCI-H838; NCIH838, lung
Method in brief: as §1

SNU119 = conditions: SNU119, ovary
Method in brief: as §1

UWB1289 = conditions: for sensitivity to single agents: UWB1.289, BRCA1 mutant ovarian cell line; for IC50: UWB1289, ovary
Method in brief: as §1

SKMEL24 = conditions: Homo sapiens, SK-MEL-24; SKMEL24, skin
Method in brief: as §1

SKOV3_ATMnull = conditions: ovary
Method in brief: as §1

HS695T = conditions: Homo sapiens, Hs 695T, skin
Method in brief: as §1

HCT15 = conditions: Homo sapiens, HCT-15; HCT15, colon
Method in brief: as §1

SNUC5 = conditions: SNUC5, colon
Method in brief: as §1

NCIH1693 = conditions: Homo sapiens, NCI-H1693; NCIH1693, lung
Method in brief: as §1

SNU1041 = conditions: SNU1041, head and neck
Method in brief: as §1

ES2 = conditions: Homo sapiens, ES-2; ES2, ovary
Method in brief: as §1

SNU407 = conditions: SNU-407; SNU407, colon
Method in brief: as §1

DMS53 = conditions: Homo sapiens, DMS-53; DMS53, lung
Method in brief: as §1

KS1 = conditions: KS1, nervous system
Method in brief: as §1

BICR22 = conditions: BICR22, head and neck
Method in brief: as §1

SJSA1 = conditions: Homo sapiens, SJSA-1; SJSA1, bone
Method in brief: as §1

CFPAC1 = conditions: Homo sapiens, CFPAC-1; CFPAC1, pancreas
Method in brief: as §1

HBCx19 = conditions: HBCx19, breast
Method in brief: as §1

TE9 = conditions: Homo sapiens, TE-9; TE9, esophagus
Method in brief: as §1

VMRCRCZ = conditions: kidney
Method in brief: as §1

HCC1954 = conditions: Homo sapiens; HCC1954, breast
Method in brief: as §1

MG63 = conditions: Homo sapiens, MG-63; MG63, bone
Method in brief: as §1

KURAMOCHI = conditions: ovary
Method in brief: as §1

HBCx13B = conditions: breast
Method in brief: as §1

CAPAN1 = conditions: Homo sapiens, CAPAN-1; CAPAN1, pancreas
Method in brief: as §1

HBCx3 = conditions: HBCx3, breast
Method in brief: as §1

HBCx8 = conditions: HBCx8, breast
Method in brief: as §1

BICR18 = conditions: BICR18, head and neck
Method in brief: as §1

TE5 = conditions: Homo sapiens, TE-5; TE5, esophagus
Method in brief: as §1

COc1ncnc(C2CC2)c1-c1ncc2cnn(Cc3ccc(-c4nc(C(F)(F)F)cn4C)cc3)c2n1 [Formula II, 6-(4-cyclopropyl-6-methoxypyrimidin-5-yl)-1-(4-(1-methyl-4-(trifluoromethyl)-1H-imidazol-2-yl)benzyl)-1H-pyrazolo[3,4-d]pyrimidine]
IC50 (NCIH1915): 52.2 nM
IC50 (U251MG): > 300 nM
IC50 (OV56): > 300 nM
IC50 (HUO3N1): > 300 nM
IC50 (SCC15): 28 nM
IC50 (HSC3): > 300 nM
IC50 (UBLC1): > 300 nM
IC50 (SNU489): > 300 nM
IC50 (NCIH838): > 300 nM
IC50 (SNU119): > 300 nM
sensitivity to single agents (UWB1289): sensitive
IC50 (UWB1289): 22.3 nM
IC50 (SKMEL24): > 300 nM
IC50 (SKOV3_ATMnull): > 300 nM
IC50 (HS695T): > 300 nM
IC50 (HCT15): > 300 nM
IC50 (SNUC5): > 300 nM
IC50 (NCIH1693): 12.7 nM
IC50 (SNU1041): > 300 nM
IC50 (ES2): 27.5 nM
IC50 (SNU407): > 300 nM
IC50 (DMS53): > 300 nM
IC50 (KS1): > 300 nM
IC50 (BICR22): > 300 nM
IC50 (SJSA1): > 300 nM
IC50 (CFPAC1): > 300 nM
IC50 (HBCx19): > 300 nM
IC50 (TE9): > 300 nM
IC50 (VMRCRCZ): > 300 nM
IC50 (HCC1954): > 300 nM
IC50 (MG63): > 300 nM
IC50 (KURAMOCHI): > 300 nM
IC50 (HBCx13B): > 300 nM
IC50 (CAPAN1): > 300 nM
IC50 (HBCx3): > 300 nM
IC50 (HBCx8): > 300 nM
IC50 (BICR18): > 300 nM
IC50 (TE5): > 300 nM

NC(=O)c1cccc2cn(-c3ccc([C@@H]4CCCNC4)cc3)nc12 [Niraparib, niraparib, reference compound]
IC50 (NCIH1915): 66.2 nM
IC50 (U251MG): > 300 nM
IC50 (OV56): > 300 nM
IC50 (HUO3N1): > 300 nM
IC50 (SCC15): > 300 nM
IC50 (HSC3): > 300 nM
IC50 (UBLC1): > 300 nM
IC50 (SNU489): > 300 nM
IC50 (NCIH838): > 300 nM
IC50 (SNU119): 39 nM
sensitivity to single agents (UWB1289): sensitive
IC50 (UWB1289): 28.4 nM
IC50 (SKMEL24): > 300 nM
IC50 (SKOV3_ATMnull): > 300 nM
IC50 (HS695T): 36.9 nM
IC50 (HCT15): > 300 nM
IC50 (SNUC5): 92.4 nM
IC50 (NCIH1693): > 300 nM
IC50 (SNU1041): > 300 nM
IC50 (ES2): > 300 nM
IC50 (SNU407): 72.8 nM
IC50 (DMS53): 168 nM
IC50 (KS1): > 300 nM
IC50 (BICR22): > 300 nM
IC50 (SJSA1): > 300 nM
IC50 (CFPAC1): > 300 nM
IC50 (HBCx19): > 300 nM
IC50 (TE9): > 300 nM
IC50 (VMRCRCZ): > 300 nM
IC50 (HCC1954): > 300 nM
IC50 (MG63): > 300 nM
IC50 (KURAMOCHI): > 300 nM
IC50 (HBCx13B): > 300 nM
IC50 (CAPAN1): 185 nM
IC50 (HBCx3): 20.8 nM
IC50 (HBCx8): 107 nM
IC50 (BICR18): > 300 nM
IC50 (TE5): > 300 nM
